Laboratory results: paper PMC6805555, “Characterization of resistance to a potent D-peptide HIV entry inhibitor” (Retrovirology, 2019)

What was measured:
[1] = tested on: HIV-1 HXB2 Env Q577R pseudotyped HIV-1; assay type: cell-based; settings: for C-peptide inhibition of Q577R compared to WT pseudoviruses: in words
From the text: (§1) Supplementary file 12977_2019_489_MOESM3_ESM.pdf: Additional file 3. Effect of Q577R on C-peptide Inhibitors. Single-cycle viral infectivity assays in which HIV-1 HXB2 Env (WT and Q577R) pseudotyped HIV-1 with a luciferase reporter was used to infect HOS-LES cells in the absence or presence of six fivefold dilutions of the indicated C-peptide (in quadruplicate). The data are the average of two experiments with the standard deviation in parentheses.

[2] = tested on: enfuvirtide resistance mutations in HIV-1; settings: next-generation L-peptide fusion inhibitors; cited from earlier work
From the text: The remarkable conservation of this gp41 hydrophobic pocket target is indicative of its critical roles in the viral life cycle and impedes the ability of the virus to combat inhibitors that target it. The region of the HIV-1 genome encoding the pocket is conserved at both the protein level (for the role of gp41 in membrane fusion during viral entry) and nucleotide level (due to a structured RNA region in the critical Rev-response element). The only FDA-approved HIV fusion inhibitor, enfuvirtide (Fuzeon), is an L-peptide derived from the gp41 C-peptide region that targets the gp41 N-trime ...

[3] = tested on: HIV-1 HXB2 Env WT pseudotyped HIV-1; assay type: cell-based; settings: HXB2 Env WT pseudotyped HIV-1, luciferase reporter, HOS-LES cells, six fivefold dilutions in quadruplicate; average of two experiments (SD)
From the text: as §1

HIV-1 strain NL4-3 = settings: similar passaging studies; cited from earlier work
From the text: This extremely high affinity for the transiently exposed gp41 trimer provides a reserve of binding energy (resistance capacitor) to prevent the viral resistance pathway of stepwise accumulation of modest affinity-disrupting mutations. Such modest mutations would not affect PIE12-trimer potency and therefore not confer a selective advantage. Viral pa ... || We previously reported the selection of HIV-1 populations resistant to PIE12-trimer by passaging the lab-adapted NL4-3 strain in the presence of escalating suboptimal (partially inhibiting) concentrations of inhibitor, starting with 1 nM. Ultimately, PIE12-trimer resistant virus propagating in 320 nM PIE12-trimer was obtained after 65 weeks of passaging. Duplicate selections yielded two highly resistant polyclonal viral pools (W1 and W2). As previously reported, similar passaging studies with enfuvirtide led to high-level resistance (> 1000-fold) within ~ 3 weeks. […] We therefore investigated the growth kinetics of the NL4-3-based replication competent Q577 point mutants and the polyclonal viral pools (W1 and W2) and compared them to that of the native virus (clonal NL4-3, WT).

Q577R HIV-1 = settings: other studied HIV-1 strains; cited from earlier work
From the text: (§2) Q577R has also been identified in viral resistance screens against other HIV-1 entry inhibitors that target the prehairpin intermediate. Against N-trimer peptides N44, N36, and IZN36, the C-peptide T2635, and the retrocyclin RC-101, Q577R is found in some or all of the resistant viruses and always accompanied by other gp41 mutation(s). By itself, Q577R provided only modest resistance to the N-trimer and C-peptide inhibitors (< threefold). Viral escape from a recently identified adnectin, 6200_A08, which similarly targets the gp41 hydrophobic pocket, ...

[4] = tested on: Q577R in patient pre-treatment env; settings: patient's pre-treatment env; cited from earlier work
From the text: as §2

HIV-1 = settings: in vitro and in vivo; cited from earlier work
From the text: The remarkable conservation of this gp41 hydrophobic pocket target is indicative of its critical roles in the viral life cycle and impedes the ability of the virus to combat inhibitors that target it. The region of the HIV-1 genome encoding the pocket is conserved at both the protein level (for the role of gp41 in membrane fusion during viral entry) and nucleotide level (due to a structured RNA region in the critical Rev-response element). The only FDA-approved HIV fusion inhibitor, enfuvirtide (Fuzeon), is an L-peptide derived from the gp41 C-peptide region that targets the gp41 N-trime ... || Q577R has also been identified in viral resistance screens against other HIV-1 entry inhibitors that target the prehairpin intermediate. Against N-trimer peptides N44, N36, and IZN36, the C-peptide T2635, and the retrocyclin RC-101, Q577R is found in some or all of the resistant viruses and always accompanied by other gp41 mutation(s). By itself, Q577R provided only modest resistance to the N-trimer and C-peptide inhibitors (< threefold). Viral escape from a recently identified adnectin, 6200_A08, which similarly targets the gp41 hydrophobic pocket, ...

[5] = tested on: IZN36 Q577R (gp41 N-peptide mimic); assay type: binding, HIV-1 (HXB2 strain); settings: Q577R vs. WT IZN36
Protocol: A Q577R mutant version was generated via site-directed mutagenesis using the QuikChange® protocol (Stratagene). […] The cysteine residues of these constructs were biotinylated for SPR.
Protein interaction analysis was carried out on a Biacore 3000 (GE Healthcare). Analyses were performed in triplicate at 25 °C in sterile-filtered and degassed Gibco® PBS pH 7.4 (Invitrogen) supplemented with 0.005% P20 and 1 mg/mL BSA at a flow rate of 50 μL/min. First, streptavidin (Pierce) was immobilized on CM5 chips (GE Healthcare) using the Amine Coupling Kit (GE Healthcare) following a standard coupling protocol [36]. […] Injections were performed for 1 min using KINJECT. Dissociation was monitored for 2 min, followed by a 20 μL injection (QUICKINJECT) of running buffer followed by EXTRACLEAN. Sensorgrams were processed using Scrubber2 (BioLogic Software), and data were analyzed with Prism 5.0 (GraphPad Software). The equilibrium binding data were fit using the built-in saturation binding model (one site—specific binding), normalized to Bmax, and replotted as concentration of analyte vs. % capacity.

| Compound | Fold Difference ([1]; IC50 Q577R vs. WT) | C-peptide inhibition of Q577R compared to WT pseudoviruses [1] | impact of enfuvirtide resistance mutations [2] | IC50 ([1]; HXB2 Env Q577R pseudotyped HIV-1, luciferase reporter, HOS-LES cells, six fivefold dilutions in quadruplicate, average of two experiments (SD)) [nM] | IC50 [3] [nM] | level of resistance on passaging (HIV-1 strain NL4-3) [fold] | time to high-level resistance (HIV-1 strain NL4-3) | effect of Q577R on sensitivity (Q577R HIV-1) | resistance provided by Q577R [4] [fold] | emergence of gp41 resistance mutations (HIV-1) | weakening of the interaction [5] | weakening of the interaction (binding energy) [5] [kcal/mol] |
| --- | --- | --- | --- | --- | --- | --- | --- | --- | --- | --- | --- | --- |
| CC[C@H](C)[C@H](NC(=O)[C@H](CCC(N)=O)NC(=O)[C@H](C)NC(=O)[C@H](CCC(N)=O)NC(=O)[C@H](CCC(=O)O)NC(=O)[C@H](CC(C)C)NC(=O)[C@H](CC(C)C)NC(=O)[C@H](C)NC(=O)[C@@H](NC(=O)[C@@H](NC(=O)[C@H](CCCCN)NC(=O)[C@H](CCC(N)=O)NC(=O)[C@H](CCC(=O)O)NC(=O)[C@H](Cc1c[nH]c2ccccc12)NC(=O)[C@H](CCC(=O)O)NC(=O)[C@H](CCC(N)=O)NC(=O)[C@H](Cc1c[nH]c2ccccc12)NC(C)=O)[C@@H](C)CC)[C@@H](C)O)C(=O)N[C@@H](CCC(N)=O)C(=O)N[C@@H](CCC(N)=O)C(=O)N[C@@H](CCC(=O)O)C(=O)N[C@@H](CCCCN)C(=O)N[C@@H](CC(N)=O)C(=O)N[C@@H](CCC(=O)O)C(=O)N[C@@H](Cc1ccc(O)cc1)C(=O)N[C@@H](CCC(=O)O)C(=O)N[C@@H](CC(C)C)C(=O)N[C@@H](CCC(N)=O)C(=O)N[C@@H](CCCCN)C(=O)N[C@@H](CC(C)C)C(=O)N[C@@H](CC(=O)O)C(=O)N[C@@H](CCCCN)C(=O)N[C@@H](Cc1c[nH]c2ccccc12)C(=O)N[C@@H](C)C(=O)N[C@@H](CO)C(=O)N[C@@H](CC(C)C)C(=O)N[C@@H](Cc1c[nH]c2ccccc12)C(=O)N[C@@H](CCC(=O)O)C(=O)N[C@@H](Cc1c[nH]c2ccccc12)C(=O)N[C@@H](Cc1ccccc1)C(N)=O [T1249] | 1.2 | only modest differences | much less impacted by enfuvirtide resistance mutations | – | – | – | – | – | – | – | – | – |
| enfuvirtide | – | only modest differences | – | 5.33 | 1.62 | > 1000 | ~ 3 weeks | minimally affected by Q577R | 25 | rapid emergence of gp41 resistance mutations | – | – |
| CC(=O)N[C@H](Cc1c[nH]cn1)C(=O)N1CCC[C@@H]1C(=O)N[C@@H]1CSSC[C@H](C(=O)N[C@H](CCC(=O)O)C(=O)N[C@H](CC(C)C)C(=O)NCC(=O)N[C@H](CCCCN)C(N)=O)NC(=O)[C@@H](CC(C)C)NC(=O)[C@@H](Cc2c[nH]c3ccccc23)NC(=O)[C@@H](CCC(N)=O)NC(=O)[C@@H](Cc2c[nH]c3ccccc23)NC(=O)[C@@H](CCC(=O)O)NC(=O)[C@H]2CCCN2C(=O)[C@@H](Cc2ccc(O)cc2)NC(=O)[C@@H](CC(=O)O)NC1=O [PIE12] | – | – | – | – | – | – | – | – | – | – | ~ 65 fold | 2.5 |
